Source: US20230303599A1, “PRODRUGS OF PHOSPHONAMIDE NUCLEOTIDE ANALOGUES AND THEIR PHARMACEUTICAL USE” (priority 2020, published 2023)
Converted amounts (≈) assume the structure as drawn. Where two headings read alike, the source gives them in different places. Blank lines part the entries; values can stand above or below the compound they belong to.

How the values were obtained:
[1] = Kinetic solubility analysis; format: physicochemical; conditions: 1× PBS, 24.2 °C, aqueous buffer, kinetic from dmso stock; pH 7.4 PBS, 1% DMSO, 24-hour incubation at ambient temperature
Summary of the method: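 Compounds from 10 mM DMSO stocks were incubated in 0.1 N HCl or 1× PBS pH 7.4 (1.0% DMSO, 100 μM maximum theoretical) for 24 h at 24.2-27.5 °C, then vacuum filtered. Filtrates were quantified in μM by chemiluminescent nitrogen detection against a calibration curve, corrected for background nitrogen; values for adjacent ring-nitrogen compounds were raised ~25%.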

[2] = tested on: PBMCs; experiment: TFV-DP formation in peripheral blood mononuclear cells (PBMCs); format: in vitro ADME, human; conditions: 1 μM compound, 2 hrs at 37° C., 50% serum, activated PBMCs; average of at least two independent experiments
Procedure: Example 109: TFV-DP Formation in Peripheral Blood Mononuclear Cells (PBMCs)
Compounds were tested in a 96-well assay format for the level of TFV-DP loading in PBMCs in the presence of human serum. PBMCs were activated with 100 units/mL recombinant human […] and […] phytohaemagglutinin (PHA) for 36 hrs. After activation, PBMCs (2 million) were incubated with compounds (1 μM) and cell culture media with 50% serum in a 96 well plate for 2 hrs at 37° C. Cells were transferred to a 96 well deep block plate and spun down. Liquid was removed, and cells were washed 2× with 1 mL of 0.9% saline with spin downs between washes. After a final wash and liquid removal, 500 μL of MeOH+200 nM C1-ATP+200 nM [adenine-^13Cs]-tenofovir diphosphate (tetra ammonium salt) was added and thoroughly mixed with the cells. The plate was then spun down and 450 μL of sample was transferred to a new 96 well plate. Supernatants were then evaporated, reconstituted in 80 μl of 1 mM ammonium phosphate and thoroughly vortexed. Blank samples were pooled for serial dilution to construct calibration standards for TFV, TFV-DP and TFV-TP in pmol/million cells. Samples were then transferred to a short-well 96 well plate, centrifuged and injected on an LC-MS/MS for quantification. Values were reported in μM units using an intracellular volume of […].

[3] = tested on: HIV-1 (IIIB); experiment: Antiviral (HIV) assay in MT-4 cells; format: cell-based
Procedure: Example 104: Antiviral (HIV) Assay in MT-4 Cells
Compounds were tested in a high-throughput 384-well assay format for their ability to inhibit the replication of HIV-1 (IIIB) in MT-4 cells. Compounds were serially diluted (1:3) in DMSO on 384-well polypropylene plates and further diluted 200-fold into complete RPMI media (10% FBS, 1% P/S) using the Biotek Micro Flow and Labcyte ECHO acoustic dispenser. Each plate contained up to 8 test compounds, with negative (no drug) and positive (5 μM AZT) controls. MT-4 cells were pre-treated with 10 μL of either RPMI (mock-infected) or a fresh 1:250 dilution of HIV-1 IIIB concentrated virus stock. Infected and uninfected MT-4 cells were further diluted in complete RPMI media and added to each plate using a Micro Flow dispenser. After 5 days incubation in a humidified and temperature-controlled incubator (37° C.), Cell Titer Glo (Promega) was added to the assay plates and chemiluminescence read using an Envision plate-reader. EC50 values were defined as the compound concentration that causes a 50% decrease in luminescence signal and were calculated using a sigmoidal dose-response model to generate curve fits and are shown in Table 1.

[4] = Cytotoxicity assay in MT-4 cells; format: cell-based; conditions: human, uninfected MT-4 cells, average of at least two independent experiments, read-out: MT4 CC50
Summary of the method: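 Uninfected MT-4 cells were incubated 5 days at 37 °C with 1:3 serially diluted compound in RPMI (10% FBS), with 10 μM puromycin as baseline cytotoxicity. Viability was read by CellTiter-Glo luminescence. Values are concentrations giving 50% luminescence decrease, from sigmoidal dose-response fits.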

[5] = tested on: HBV; experiment: Antiviral (HBV) assay in primary human hepatocytes (PHHs); format: cell-based; conditions: Hepatitis B virus, Hepatocyte, 120 h; HBV (GTD) infected PHH, 5 days, HBV DNA in supernatant; average of at least two independent experiments
Procedure: Example 106: Antiviral (HBV) Assay in Primary Human Hepatocytes (PHHs)
Cryopreserved PHH were thawed, recovered by centrifugation at 100 g in cryopreserved hepatocyte recovery medium (Thermo Fisher Scientific; CM7500), and plated on collagen matrix (Life Technologies; Catalog Number: R-011-K) coated T225 flasks (Corning CellBIND, Catalog Number: 3293) at a density of 25E6 live cells in 60 mls media. Cells were plated in William's E medium (Thermo Fisher Scientific; A1217601) supplemented with 3.6% hepatocyte thawing and plating supplement (Thermo Fisher Scientific, A15563), 5% fetal bovine serum (Thermo Fisher Scientific; 16000-036), 1 μM dexamethasone (Thermo Fisher Scientific, A15563), and 0.2% Torpedo antibiotic mix (Bioreclamation; Z990008). The plating medium was removed after 14 hours and the cells were subsequently cultured in maintenance medium: William's E medium supplemented with 4% hepatocyte maintenance supplement (Thermo Fisher Scientific; AI15564), 2% fetal bovine serum, 0.1μ M dexamethasone, 1.5% DMSO (Sigma-Aldrich, St. Louis, MO; D8418), and 0.2% Torpedo antibiotic mix. Approximately 24 hours after plating, PHH were infected with HepAD38-derived GTD virus at 500 viral genome equivalents per cell in PHH maintenance medium supplemented with 4% PEG 8000 (Promega, Madison, WI; V3011). Infections were allowed to proceed for 24 hours before removing the remaining extracellular virions by washing with maintenance medium three times. After allowing viral infection to take place for 3 days, the infected cells were harvested from the flasks by trypsinization (0.25X in PBS without Ca/Mg, 25 minutes) following a 4 minute 0.5X Versene (Life Technologies Catalog Number: 15040-066) treatment and two PBS washes. Trypsinized cells were inactivated in 10% FBS containing maintenance medium, centrifuged 6 minutes at 50 g, resuspended in hepatocyte maintenance medium, filtered through a 40 uM cell strainer, and adjusted to a density of 0.25E6 cells/ml. Infected cells were seeded on 384 well collagen coated plates (Greiner, Austria) at a density of 20,000 cells/well containing serially diluted compounds of the present disclosure or DMSO (0.5%) in a final volume of 80 μl. The assay plates were incubated for a period of 5 days and the antiviral activity of the test compounds were assayed by detecting the presence of HBV DNA in the culture supernatant using the QuantiGene™ 2.0 nucleic acid quantification kit (Affymetrix, Santa Clara, CA).

[6] = Cytotoxicity assay in primary human hepatocytes (PHHs); format: cell-based; conditions: HBV-infected primary human hepatocytes, HBV-infected PHH, Cell Titer Glo, average of at least two independent experiments
Summary of the method: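 HBV-infected primary human hepatocytes seeded at 20K cells/well on compound-prespotted collagen plates and incubated 5 days. After removing supernatant for HBV DNA analysis, viability measured in remaining cells by CellTiter-Glo luminescence.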

[7] = Human immunodeficiency virus 1, IIIB, MT4, 120 h, read-out: MT4 HIV EC50 (nM)

solubility kinetic at 24 h [1]: < 1 µg/mL
Average PBMC TFV-DP (μM) [2]: BLQ
SMILES: C[C@H](Cn1cnc2c(N)ncnc21)OCP(=O)(NC(C)(C)C(=O)O[C@H]1CC[C@H](C(C)(C)C)CC1)NC(C)(C)C(=O)O[C@H]1CC[C@H](C(C)(C)C)CC1 [Example 12, Bis(trans-4-(tert-butyl)cyclohexyl) 2,2′-((((((R)-1-(6-amino-9H-purin-9-yl)propan-2-yl)oxy)methyl)phosphoryl)bis(azanediyl))bis(2-methylpropanoate)]

EC50 ([3]; Human immunodeficiency virus 1, MT4, 120 h, HIV-1 IIIB in MT-4 cells, 5 days, Cell Titer Glo, average of at least two independent experiments, read-out: MT4 HIV EC50): 16 nM
solubility kinetic at 24 h [1]: < 1 µg/mL
SMILES: C[C@H](Cn1cnc2c(N)ncnc21)OCP(=O)(NC(C)(C)C(=O)OCC1CCC(C)(C)CC1)NC(C)(C)C(=O)OCC1CCC(C)(C)CC1 [Example 13, Bis((4,4-dimethylcyclohexyl)methyl) 2,2′-(((((1-(6-amino-9H-purin-9-yl)propan-2-yl)oxy)methyl)phosphoryl)bis(azanediyl))(R)-bis(2-methylpropanoate)]
CC50 at 5 days [4]: 5.47 µM

SMILES: CCCCCCOC(=O)C(C)(C)NP(=O)(CO[C@H](C)Cn1cnc2c(=N)n(Cc3oc(=O)oc3C)cnc21)NC(C)(C)C(=O)OCCCCCC [Example 83, Dihexyl 2,2′-(((((1-(6-imino-1-((5-methyl-2-oxo-1,3-dioxol-4-yl)methyl)-1,6-dihydro-9H-purin-9-yl)propan-2-yl)oxy)methyl)phosphoryl)bis(azanediyl))(R)-bis(2-methylpropanoate)]
CC50 at 5 days [4]: 6.6 µM
EC50 [5]: 2.14 nM
CC50 at 5 days [6]: > 100 nM
solubility kinetic at 24 h [1]: 33 µg/mL (≈ 44.7 µM)

SMILES: CCCCCCOC(=O)C(C)(C)NP(=O)(CO[C@H](C)Cn1cnc2/c(=N\Cc3oc(=O)oc3C)n(Cc3oc(=O)oc3C)cnc21)NC(C)(C)C(=O)OCCCCCC [Example 84, Dihexyl 2,2′-(((((1-(1-((5-methyl-2-oxo-1,3-dioxol-4-yl)methyl)-6-(((5-methyl-2-oxo-1,3-dioxol-4-yl)methyl)imino)-1,6-dihydro-9H-purin-9-yl)propan-2-yl)oxy)methyl)phosphoryl)bis(azanediyl))(R,E)-bis(2-methylpropanoate)]
CC50 at 5 days [4]: 10.6 µM
EC50 [5]: 3.37 nM
CC50 at 5 days [6]: > 100 nM
solubility kinetic at 24 h [1]: 8 µg/mL (≈ 9.41 µM)

SMILES: C[C@H](Cn1cnc2c(N)ncnc21)OCP(=O)(NC(C)(C)C(=O)OC1CC2(CCCCC2)C1)NC(C)(C)C(=O)OC1CC2(CCCCC2)C1 (stereo partly drawn) [Example 86, Di(spiro[3.5]nonan-2-yl) 2,2′-(((((1-(6-amino-9H-purin-9-yl)propan-2-yl)oxy)methyl)phosphoryl)bis(azanediyl))(R)-bis(2-methylpropanoate)]
CC50 at 5 days [4]: 3.73 µM
EC50 [5]: 3.16 nM
CC50 at 5 days [6]: > 100 nM
solubility kinetic at 24 h [1]: 2 µg/mL (≈ 2.85 µM)

SMILES: C[C@H](Cn1cnc2c(N)ncnc21)OCP(=O)(NC(C)(C)C(=O)OCC1CCC(F)(F)CC1)NC(C)(C)C(=O)OCC1CCC(F)(F)CC1 [Example 88, Bis((4,4-difluorocyclohexyl)methyl) 2,2′-(((((1-(6-amino-9H-purin-9-yl)propan-2-yl)oxy)methyl)phosphoryl)bis(azanediyl))(R)-bis(2-methylpropanoate)]
CC50 at 5 days [4]: 7.29 µM
EC50 [5]: 2.5 nM
CC50 at 5 days [6]: > 100 nM
solubility kinetic at 24 h [1]: 69 µg/mL (≈ 95.6 µM)

SMILES: C[C@H](Cn1cnc2c(N)ncnc21)OCP(=O)(NC(C)(C)C(=O)OC1CC(C2CCC2)C1)NC(C)(C)C(=O)OC1CC(C2CCC2)C1 (stereo partly drawn) [Example 90, Di([1,1′-bi(cyclobutan)]-3-yl) 2,2′-(((((1-(6-amino-9H-purin-9-yl)propan-2-yl)oxy)methyl)phosphoryl)bis(azanediyl))(R)-bis(2-methylpropanoate)]
CC50 at 5 days [4]: 5.51 µM
EC50 [5]: 2.95 nM
CC50 at 5 days [6]: > 100 nM
solubility kinetic at 24 h [1]: 7 µg/mL (≈ 10.4 µM)

SMILES: CCC[C@H]1CC[C@H](COC(=O)C(C)(C)NP(=O)(CO[C@H](C)Cn2cnc3c(N)ncnc32)NC(C)(C)C(=O)OC[C@H]2CC[C@H](CCC)CC2)CC1 [Example 92]
CC50 at 5 days [4]: 7.99 µM
EC50 [5]: 4.56 nM
CC50 at 5 days [6]: > 100 nM
solubility kinetic at 24 h [1]: < 1 µg/mL

SMILES: CCCCCCOC(=O)C(C)(C)NP(=O)(CO[C@H](C)Cn1cnc2c(NC(=O)CCCSC(C)=O)ncnc21)NC(C)(C)C(=O)OCCCCCC [Example 97, Dihexyl 2,2′-(((((1-(6-(4-(acetylthio)butanamido)-9H-purin-9-yl)propan-2-yl)oxy)methyl)phosphoryl)bis(azanediyl))(R)-bis(2-methylpropanoate)]
EC50 [3, 7]: 13 nM
CC50 at 5 days [4]: 10.7 µM
solubility kinetic at 24 h [1]: 13 µg/mL (≈ 16.9 µM)

SMILES: CCCCCCOC(=O)C(C)(C)NP(=O)(CO[C@H](C)Cn1cnc2c(NC(=O)CC(C)(C)c3c(C)cc(C)cc3OC(C)=O)ncnc21)NC(C)(C)C(=O)OCCCCCC [Example 100, Dihexyl 2,2′-(((((1-(6-(3-(2-acetoxy-4,6-dimethylphenyl)-3-methylbutanamido)-9H-purin-9-yl)propan-2-yl)oxy)methyl)phosphoryl)bis(azanediyl))(R)-bis(2-methylpropanoate)]
EC50 [3, 7]: 22 nM

SMILES: C[C@H](Cn1cnc2c(N)ncnc21)OCP(=O)(NC(C)(C)C(=O)OCCc1ccccc1)NC(C)(C)C(=O)OCCc1ccccc1 [Example 103, Diphenethyl 2,2′-(((((1-(6-amino-9H-purin-9-yl)propan-2-yl)oxy)methyl)phosphoryl)bis(azanediyl))(R)-bis(2-methylpropanoate)]
EC50 [3, 7]: > 500 nM
CC50 at 5 days [4]: > 42.5 µM
